Measurements taken from patent publication US9744263B2, “Bone tissue implant comprising strontium ions” (ASTRA TECH AB, priority 2007, dated 2017).

Legend:
Format in all cases: cell-based, human
MG-63 cells [1] = test: Production of alkaline phosphatase (ALP) by MG-63 cells with Sr(NO3)2 added to the wells
Experimental: MG-63 is a human cell line (ATCC No CRL-1427, U.S.) conventionally used in the art for in vitro studies of osteoblasts.
In this study, MG-63 cells were obtained from frozen cells in second passage and further cultured in Dulbecco's modified Eagle's medium (DMEM) containing FCS 5%, PEST 1%, Gibco, UK) in 37° C. in an atmosphere of 5% CO2 and 100% humidity. When the cells reached confluence they were subcultured by the use of 0.05% Trypsin-EDTA (Gibco, UK) until the amount of cells were obtained.
In order to study the effect of strontium on the production of alkaline phosphatase (ALP), MG-63 cells prepared in reference example 1 were subcultured into 24 well plates at a plating density of 10 000 cells/cm^2, in total 20 000 cells/well. Sterile filtered Sr(NO3)2 at final concentrations of 10 mM, 5 mM, 3 mM, and 1 mM respectively (pH 5.2) were added to the respective wells of the plate. Untreated cells were used as controls. Cells were cultured for 3, 7 and 14 days at a temperature of 37° C. in an atmosphere of 5% CO2 and 100% humidity.
(§1) At harvest, the cell culture medium was analysed with respect to the ALP content. The intracellular ALP was measured by cell lysis according to the instructions of the manufacturer (SenzoLyte™ pNPP Alkaline Phosphatase Assay Kit Colorimetric BioSite, Sweden). The absorption was set at 405 nm by an automatic plate reader (Vmax, Molecular Device, UK). By comparing the optical density of the samples with the standard provided with the kit, the ALP concentrations could be determined. The instructions from the manufacturer were followed (BioSite, Sweden).

MG-63 cells [2] = test: ALP production on reference surfaces; details: 0.5 mM strontium on reference surface 1, after 7 days of cell culture
Experimental: as §1
The production of ALP on reference surface 1 comprising a concentration of 0.5 mM strontium was compared with unstimulated reference surfaces 1 and 2.

MG-63 cells [3] = test: MG-63 proliferation on reference surfaces with strontium (NucleoCounter); details: 0.5 mM strontium on reference surface 1, 7 days, compared to unstimulated reference surfaces 1 and 2
Experimental: Sterilized (β-radiation) Ti coins with reference surfaces 1 and 2, respectively were placed in 24 well plates. MG-63 cells were subcultured onto the coins in the 24 well plates at a plating density of 10 000 cells/cm^2, in total 20 000 cells/well. Sterile filtered Sr(NO3)2 at final concentrations of 5 mM and 0.5 mM (pH 5.2) was added to the respective wells. Untreated cells were used as controls. Cells were cultured for 7 days at a temperature of 37° C. in an atmosphere of 5% CO2 and 100% humidity.
The total number of cells in each well (×10^5) after each time period was determined by the NucleoCassette method by the NucleoCounter (ChemoMetec A/S Denmark).
The number of cells was investigated by lysis of the cells in “Reagent A” having a pH of 1.25 following stabilization by “Reagent B”. In the NucleoCassette, propidium iodide was incorporated which targets the amount of released DNA. The cassette was placed in the NucleoCounter and the amount of measured fluorochrome corresponded to the amount of DNA. The instructions from the manufacturer were followed (Chemometec A/S, Denmark).

O=[N+]([O-])[O-].O=[N+]([O-])[O-].[Sr+2] [strontium, Sr(NO3)2] was tested, and the “amount of ALP, rank among concentrations” value (MG-63 cells [1]; 3 mM strontium, after 14 days of culturing) was “highest amount of ALP”, the “production of ALP compared to control” value (MG-63 cells [1]; after 7 days of culture) was “small increase” and the “ALP levels compared to control” value (MG-63 cells [1]; after 14 days, especially at Sr concentrations 1 mM and 3 mM) was “remarkably increased”. The “production of ALP compared to control (unstimulated cells)” value (MG-63 cells [1]; initially (3 days), all strontium concentrations (1, 3, 5, 10 mM), polystyrene) was “initially slow”, the “production of ALP compared with unstimulated reference surfaces 1 and 2” value (MG-63 cells [2]) was “increased production of ALP” and the “MG-63 cell proliferation, rank” value (MG-63 cells [3]) was “highest MG-63 cell proliferation”.
